Data from ChEMBL document CHEMBL1955839, “Synthesis and structure-activity relationship of 4-amino-2-phenylpyrimidine derivatives as a series of novel GPR119 agonists” (Bioorg Med Chem, 2012).

How the values were obtained:
Mus musculus [1] = experiment: Antihyperglycemic activity in ICR mouse assessed as blood glucose lowering ratio at 10 mg/kg, po administered 10 mins prior glucose challenge measured after 30 mins by oral glucose tolerance test; assay type: functional
[2] = Oral bioavailability in rat at 3 mg/kg; assay type: ADME, organism-based; settings: in vivo
[3] = Total clearance in rat at 1 mg/kg, iv; assay type: ADME, organism-based; design: dose 1 mg/kg, route intravenous; settings: in vivo
[4] = Volume of distribution at steady state in rat at 1 mg/kg, iv; assay type: ADME, organism-based; design: dose 1 mg/kg, route intravenous; settings: in vivo, read-out: Vdss
[5] = Tmax in rat at 3 mg/kg, po; assay type: ADME, organism-based; design: dose 3 mg/kg, route oral; settings: in vivo
[6] = Half life in rat at 1 mg/kg, iv; assay type: ADME, organism-based; design: dose 1 mg/kg, route intravenous; settings: in vivo
Cytochrome P450 1A2 = target: T1, Cytochrome P450 1A2 (Homo sapiens, UniProt P05177); experiment: Inhibition of CYP1A2; assay type: ADME
T1 sequence (P05177 whole entry): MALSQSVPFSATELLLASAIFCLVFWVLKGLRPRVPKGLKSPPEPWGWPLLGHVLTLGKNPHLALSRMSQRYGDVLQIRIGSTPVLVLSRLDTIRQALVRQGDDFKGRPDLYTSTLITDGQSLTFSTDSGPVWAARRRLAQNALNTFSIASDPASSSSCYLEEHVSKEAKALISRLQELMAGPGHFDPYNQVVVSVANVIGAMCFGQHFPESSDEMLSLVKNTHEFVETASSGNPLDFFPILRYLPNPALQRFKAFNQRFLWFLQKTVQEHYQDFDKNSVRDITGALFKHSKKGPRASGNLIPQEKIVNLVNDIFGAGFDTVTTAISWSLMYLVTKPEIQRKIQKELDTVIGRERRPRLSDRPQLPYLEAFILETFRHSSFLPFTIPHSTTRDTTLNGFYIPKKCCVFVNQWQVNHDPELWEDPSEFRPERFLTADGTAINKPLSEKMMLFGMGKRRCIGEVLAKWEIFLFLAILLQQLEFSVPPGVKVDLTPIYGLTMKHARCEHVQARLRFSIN

[7] = target: T2, Glucose-dependent insulinotropic receptor (Homo sapiens) (UniProt Q8TDV5); experiment: Agonist activity at human GPR119 expressed in HEK293 cells co-transfected with pCRE-Luc assessed as induction in cAMP level at 10 uM after 6 hrs by luciferase reporter gene assay relative to 10 uM of 2-{[2-(4-Bromophenyl)-6-methylpyrimidin-4-yl]amino}ethanol; assay type: functional, cell-based
T2 sequence (whole entry): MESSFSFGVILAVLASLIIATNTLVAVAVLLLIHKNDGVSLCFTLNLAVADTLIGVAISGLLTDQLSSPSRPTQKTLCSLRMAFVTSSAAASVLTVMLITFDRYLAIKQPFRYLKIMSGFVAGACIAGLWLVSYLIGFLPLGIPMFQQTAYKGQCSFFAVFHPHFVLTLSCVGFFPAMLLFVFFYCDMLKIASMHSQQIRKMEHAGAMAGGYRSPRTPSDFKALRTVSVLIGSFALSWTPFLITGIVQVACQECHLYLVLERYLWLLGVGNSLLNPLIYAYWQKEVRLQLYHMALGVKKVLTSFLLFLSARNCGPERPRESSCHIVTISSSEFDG

[8] = target: T2, Glucose-dependent insulinotropic receptor (Homo sapiens); experiment: Agonist activity at human GPR119 expressed in HEK293 cells co-transfected with pCRE-Luc assessed as induction in cAMP level after 6 hrs by luciferase reporter gene assay relative to 10 uM of 2-{[2-(4-Bromophenyl)-6-methylpyrimidin-4-yl]amino}ethanol; assay type: functional, cell-based
Mus musculus [9] = experiment: Antihyperglycemic activity in ICR mouse assessed as blood glucose lowering ratio at 30 mg/kg, po administered 10 mins prior glucose challenge measured after 30 mins by oral glucose tolerance test; assay type: functional

IC50 (Cytochrome P450 1A2) [nM] | Intrinsic activity [7] [%] | EC [8] [µM] | Compound | Activity (Mus musculus [1]) [%] | further results
 | 66 | 19 | Cc1cc(NCCO)nc(-c2ccc(I)cc2)n1 |  | 
< 91 | 209 | 1.8 | COCCNc1cc(C)nc(-c2ccc(Br)cc2)n1 | 13 | 
 | 48 | 12 | Cc1cc(NCCO)nc(-c2ccc(Cl)cc2)n1 |  | 
 | 146 | 5.9 | CCc1cc(NCCO)nc(-c2ccc(Br)cc2)n1 |  | 
660 |  |  | Cc1cc(NCCO)nc(-c2ccc(Br)cc2)n1 |  | Activity (Mus musculus [9]): 17%

The next lines start with the compound.

Compound | IC50 (Cytochrome P450 1A2) [nM] | Intrinsic activity [7] [%] | EC [8] [µM] | Activity (Mus musculus [1]) [%] | further results
Cc1cc(NCCc2ccc[n+]([O-])c2)nc(-c2ccc(Br)cc2)n1 | 970 |  |  | 38 | bioavailability [2]: 56%; clearance [3]: 20.1 mL/min/kg; Vd [4]: 2 L/kg; Tmax [5]: 15 min; half-life [6]: 72 min
Cc1cc(NCC(C)O)nc(-c2ccc(Br)cc2)n1 (stereo unspecified) |  | 209 | 3.6 |  | 
Cc1cc(NCC(C)C)nc(-c2ccc(Br)cc2)n1 | < 91 | 322 | 0.91 | 24 | 
OCCNc1cc(C(F)F)nc(-c2ccc(Br)cc2)n1 |  | 195 | 8.2 |  | 
Cc1cc(NCc2cccnc2)nc(-c2ccc(Br)cc2)n1 | < 46 | 294 | 1.3 |  | 
Cc1cc(NC(C)CO)nc(-c2ccc(Br)cc2)n1 (stereo unspecified) |  | 82 | 13 |  | 
Cc1cc(NCCc2cccnc2)nc(-c2ccc(Br)cc2)n1 | < 91 | 772 | 0.73 | 17 | 
